Each molecule was assayed against mouse DPP1 enzyme (Mus musculus (Mouse), UniProt P97821) (assay: Mouse DPP1 Enzyme IC50 Assay). Conditions: active mouse DPP1 enzyme, H-Gly-Arg-AMC substrate, 10 min pre-incubation at 37° C., MES pH 5.5.
Format: biochemical
Method: Test articles were applied to active mouse DPP1 enzyme (R&D Systems; Minneapolis, MN) in Assay Buffer (50 mM MES pH 5.5, 50 mM NaCl, 5 mM DTT) in a total reaction volume of 125 μL. 25 μL of compound in Assay Buffer plus 5% DMSO was first added to 50 μL of active mouse DPP1 enzyme at a concentration of 62.5 pg/μL and allowed to pre-incubate for 10 minutes at 37° C. after which 50 μL of 1000 μM H-Gly-Arg-AMC substrate (Bachem; St. Torrance, CA) was added, giving final substrate concentration of 400 µM and a final DMSO concentration of 1%. Substrate cleavage was measured for 90 minutes at 37° C., with fluorescence at Excitation/Emission 350/450 nm measured every 5 minutes. DPP1 concentration was interpolated based on its activity relative to a standard curve of recombinant active mouse DPP1 enzyme. IC50 values for each compound were calculated via the XLFit (IDBS Version 5.3.1.3) Add-On to Microsoft Excel using the four parameter fit equation y=(A+((B−A)/(1+ ((C/x)^D)))), which appears as equation number 205 (4 Parameter Logistic Model or Sigmoidal Dose-Response Model) in XLFit. Default constraints were used for each Parameter. IC50 was defined as the compound concentration at which 50% of enzyme activity was inhibited when compared to the no-compound control.

Sequence of mouse DPP1 enzyme (P97821 25-134): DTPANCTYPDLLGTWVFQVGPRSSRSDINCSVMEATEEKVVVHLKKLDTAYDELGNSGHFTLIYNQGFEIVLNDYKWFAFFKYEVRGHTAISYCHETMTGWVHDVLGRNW
Sequence of mouse DPP1 enzyme (P97821 231-393): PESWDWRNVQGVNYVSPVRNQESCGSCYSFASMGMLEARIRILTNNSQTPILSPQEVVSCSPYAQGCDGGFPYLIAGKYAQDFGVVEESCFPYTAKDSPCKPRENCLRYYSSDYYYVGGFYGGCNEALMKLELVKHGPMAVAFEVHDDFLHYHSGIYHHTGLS
Sequence of mouse DPP1 enzyme (P97821 394-462): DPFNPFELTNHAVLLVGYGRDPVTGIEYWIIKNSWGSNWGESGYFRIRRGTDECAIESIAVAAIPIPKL

Row | IC50 [nM] | SMILES
1 | 130 | CO[C@@]1(C)CNC[C@@H](C(=O)N[C@H](C#N)Cc2ccc(-c3ccc4oc(=O)n(C)c4c3)cc2)OC1 (relative stereo) [Compound 3-A, (2S,6S*)—N-[(1S)-1-cyano-2-[4-(3-methyl-2-oxo-2,3-dihydro-1,3-benzoxazol-5-yl)phenyl]ethyl]-6-methoxy-6-methyl-1,4-oxazepane-2-carboxamide]
2 | 251 | CO[C@]1(C)CNC[C@@H](C(=O)N[C@H](C#N)Cc2ccc(-c3ccc4oc(=O)n(C)c4c3)cc2)OC1 (relative stereo) [Compound 3-B, (2S,6R*)—N-[(1S)-1-cyano-2-[4-(3-methyl-2-oxo-2,3-dihydro-1,3-benzoxazol-5-yl)phenyl]ethyl]-6-methoxy-6-methyl-1,4-oxazepane-2-carboxamide]
3 | 41.4 ± 4.5 | Cn1c(=O)oc2ccc(-c3ccc(C[C@@H](C#N)NC(=O)[C@@H]4CNCCCCO4)cc3)cc21 (single isomer, unassigned) [drawing 490]
4 | 36.9 | CC[C@@]1(O)CNC[C@@H](C(=O)N[C@H](C#N)Cc2ccc(-c3ccc4oc(=O)n(C)c4c3)cc2)OC1 (single isomer, unassigned) [drawing 492]
5 | 4040 | CC[C@]1(O)CNC[C@@H](C(=O)N[C@H](C#N)Cc2ccc(-c3ccc4oc(=O)n(C)c4c3)cc2)OC1 (single isomer, unassigned) [drawing 493]
6 | 33.9 ± 4 | Cn1c(=O)oc2ccc(-c3ccc(C[C@@H](C#N)NC(=O)[C@@H]4CNCCCCO4)cc3)cc21 (single isomer, unassigned) [drawing 497]
7 | 6.05 ± 2 | CCO[C@@H]1CCNC[C@@H](C(=O)N[C@H](C#N)Cc2ccc(-c3ccc4oc(=O)n(C)c4c3)cc2)OC1 (single isomer, unassigned) [drawing 499]
8 | > 5000 | CCO[C@@]1(C)CNC[C@@H](C(=O)N[C@H](C#N)Cc2ccc(-c3ccc4oc(=O)n(C)c4c3)cc2)OC1 (single isomer, unassigned) [drawing 503]
9 | 1640 | CCO[C@]1(C)CNC[C@@H](C(=O)N[C@H](C#N)Cc2ccc(-c3ccc4oc(=O)n(C)c4c3)cc2)OC1 (single isomer, unassigned) [drawing 504]
10 | 7.04 | CO[C@@H]1CCO[C@H](C(=O)N[C@H](C#N)Cc2ccc(-c3ccc4oc(=O)n(C)c4c3)cc2)CNC1 (single isomer, unassigned) [drawing 505]

More lines, now with the values behind:

Row | SMILES | IC50 [nM]
11 | Cn1c(=O)oc2ccc(-c3ccc(C[C@@H](C#N)NC(=O)[C@@H]4CNC[C@@](C)(O)CO4)cc3)cc21 (relative stereo) [Compound 2-A, (2S,6R*)—N-[(1S)-1-cyano-2-[4-(3-methyl-2-oxo-2,3-dihydro-1,3-benzoxazol-5-yl)phenyl]ethyl]-6-hydroxy-6-methyl-1,4-oxazepane-2-carboxamide] | 51.7
12 | Cn1c(=O)oc2ccc(-c3ccc(C[C@@H](C#N)NC(=O)[C@H]4CCCCCNC4)cc3)cc21 (single isomer, unassigned) | 54
13 | Cn1c(=O)oc2ccc(-c3ccc(C[C@@H](C#N)NC(=O)[C@@H]4CNC[C@](C)(O)CO4)cc3)cc21 (single isomer, unassigned) [drawing 491] | 351 ± 223
14 | CC(C)[C@]1(O)CNC[C@@H](C(=O)N[C@H](C#N)Cc2ccc(-c3ccc4oc(=O)n(C)c4c3)cc2)OC1 (single isomer, unassigned) [drawing 494] | > 5000
15 | Cn1c(=O)oc2ccc(-c3ccc(C[C@@H](C#N)NC(=O)[C@@H]4CNCC5(CCO5)CO4)cc3)cc21 (single isomer, unassigned) [drawing 495] | 4.2 ± 0.8
16 | Cn1c(=O)oc2ccc(-c3ccc(C[C@@H](C#N)NC(=O)[C@@H]4CNC[C@@]5(CCO5)CO4)cc3)cc21 (single isomer, unassigned) [drawing 496] | 2.36 ± 0.3
17 | CN1CC2(C1)OC(=O)c1ccc(-c3ccc(C[C@@H](C#N)NC(=O)[C@@H]4CNCCCCO4)cc3)cc12 (single isomer, unassigned) [drawing 498] | 17.8 ± 2
18 | Cn1c(=O)oc2ccc(-c3ccc(C[C@@H](C#N)NC(=O)C4CCCCCNC4)c(F)c3)cc21 (single isomer, unassigned) [drawing 500] | 13.1 ± 3.7
19 | Cn1c(=O)oc2ccc(-c3ccc(C[C@@H](C#N)NC(=O)[C@H]4CCCCCNC4)c(F)c3)cc21 (single isomer, unassigned) [drawing 501] | 148 ± 16
20 | Cn1c(=O)oc2ccc(-c3ccc(C[C@@H](C#N)NC(=O)C4CCCCCNC4)cc3)cc21 (stereo partly drawn) [IA] | 63.4
21 | Cn1c(=O)oc2ccc(-c3ccc(C[C@@H](C#N)NC(=O)[C@@H]4CCCCCNC4)cc3)cc21 [drawing 502] | 629

What follows are molecules tested against human DPP1 enzyme (Homo sapiens (Human), UniProt P53634) (assay: Human DPP1 Enzyme IC50 Assay). Conditions: recombinant human DPP1 activated with cathepsin L, H-Gly-Arg-AMC substrate, 10 min pre-incubation at 37° C., MES pH 6.0.
Format: biochemical
Method: Recombinant human DPP1 enzyme (R&D Systems; Minneapolis, MN) was first proteolytically processed into its mature form using recombinant human cathepsin L (R&D Systems) in a buffer consisting of 20 mM citric acid pH 4.5, 150 mM NaCl, 1 mM EDTA and 10 mM DTT. Test articles were applied to activated human DPP1 enzyme in Assay Buffer (25 mM MES pH 6.0, 50 mM NaCl, 5 mM DTT) in a total reaction volume of 125 μL. 25 μL of compound in Assay Buffer plus 5% DMSO was first added to 50 μL of activated human DPP1 enzyme at a concentration of 1 ng/μL and allowed to pre-incubate for 10 minutes at 37° C. after which 50 μL of 1000 μM H-Gly-Arg-AMC substrate (Bachem; St. Torrance, CA) was added, giving final substrate concentration of 400 µM and a final DMSO concentration of 1%. Substrate cleavage was measured for 90 minutes at 37° C., with fluorescence at Excitation/Emission 350/450 nm measured every 5 minutes. DPP1 concentration was interpolated based on its activity relative to a standard curve of activated human recombinant DPP1 enzyme. IC50 values for each compound were calculated via the XLFit (IDBS Version 5.3.1.3) Add-On to Microsoft Excel using the four parameter fit equation y={A+[(B−A)]/[1+((C/x)^D)]}, which appears as equation number 205 (4 Parameter Logistic Model or Sigmoidal Dose-Response Model) in XLFit. Default constraints were used for each Parameter. IC50 was defined as the compound concentration at which 50% of enzyme activity was inhibited when compared to the no-compound control.

Sequence of human DPP1 enzyme (P53634 25-134): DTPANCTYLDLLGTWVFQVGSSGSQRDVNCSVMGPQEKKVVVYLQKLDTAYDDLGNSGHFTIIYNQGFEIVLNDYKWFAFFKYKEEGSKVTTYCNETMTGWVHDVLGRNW
Sequence of human DPP1 enzyme (P53634 231-394): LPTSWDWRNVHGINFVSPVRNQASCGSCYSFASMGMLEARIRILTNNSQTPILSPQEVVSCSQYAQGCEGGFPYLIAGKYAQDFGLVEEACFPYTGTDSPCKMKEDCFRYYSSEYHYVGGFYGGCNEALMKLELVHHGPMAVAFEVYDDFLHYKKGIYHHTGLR
Sequence of human DPP1 enzyme (P53634 395-463): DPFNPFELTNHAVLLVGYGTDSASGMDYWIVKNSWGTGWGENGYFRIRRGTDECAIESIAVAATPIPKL

Row | IC50 [nM] | SMILES
22 | 145 | CO[C@@]1(C)CNC[C@@H](C(=O)N[C@H](C#N)Cc2ccc(-c3ccc4oc(=O)n(C)c4c3)cc2)OC1 (relative stereo) [Compound 3-A, (2S,6S*)—N-[(1S)-1-cyano-2-[4-(3-methyl-2-oxo-2,3-dihydro-1,3-benzoxazol-5-yl)phenyl]ethyl]-6-methoxy-6-methyl-1,4-oxazepane-2-carboxamide]
23 | 206 | CO[C@]1(C)CNC[C@@H](C(=O)N[C@H](C#N)Cc2ccc(-c3ccc4oc(=O)n(C)c4c3)cc2)OC1 (relative stereo) [Compound 3-B, (2S,6R*)—N-[(1S)-1-cyano-2-[4-(3-methyl-2-oxo-2,3-dihydro-1,3-benzoxazol-5-yl)phenyl]ethyl]-6-methoxy-6-methyl-1,4-oxazepane-2-carboxamide]
24 | 6.82 ± 0.5 | CO[C@@H]1CCO[C@H](C(=O)N[C@H](C#N)Cc2ccc(-c3ccc4oc(=O)n(C)c4c3)cc2)CNC1 (single isomer, unassigned) [drawing 553]
25 | 17.4 ± 6 | CO[C@H]1CCNC[C@@H](C(=O)N[C@H](C#N)Cc2ccc(-c3ccc4oc(=O)n(C)c4c3)cc2)OC1 (single isomer, unassigned) [drawing 554]

More lines, now with the values behind:

Row | SMILES | IC50 [nM]
26 | Cn1c(=O)oc2ccc(-c3ccc(C[C@@H](C#N)NC(=O)[C@@H]4CNC[C@@](C)(O)CO4)cc3)cc21 (relative stereo) [Compound 2-A, (2S,6R*)—N-[(1S)-1-cyano-2-[4-(3-methyl-2-oxo-2,3-dihydro-1,3-benzoxazol-5-yl)phenyl]ethyl]-6-hydroxy-6-methyl-1,4-oxazepane-2-carboxamide] | 39.6
27 | Cn1c(=O)oc2ccc(-c3ccc(C[C@@H](C#N)NC(=O)C4CCCCCNC4)cc3)cc21 (stereo partly drawn) [I-A] | 72.6
28 | Cn1c(=O)oc2ccc(-c3ccc(C[C@@H](C#N)NC(=O)C4CCCCCNC4)cc3)cc21 (stereo partly drawn) [drawing 511] | 85.6 ± 19.5
29 | Cn1c(=O)oc2ccc(-c3ccc(C[C@@H](C#N)NC(=O)C4CCCCCNC4)cc3)cc21 (stereo partly drawn) [drawing 512] | 61.3 ± 9.9
30 | Cn1c(=O)oc2ccc(-c3ccc(C[C@@H](C#N)NC(=O)[C@@H]4CCCCCNC4)cc3)cc21 [drawing 550] | 603
